From US8541587B2, “Lysophosphatidic acid receptor antagonists” (Amira Pharmaceuticals, Inc., priority 2011, dated 2013) come the findings set out here.

Bounds are passed on as bounds.

One assay deals with T1, human LPA3 receptor (Homo sapiens, UniProt Q9UBY5).
T1 construct: The full-length cDNA fragment for human LPA3 was obtained by PCR from the vector; expressed in transfected cells
T1 sequence (Q9UBY5 1-353): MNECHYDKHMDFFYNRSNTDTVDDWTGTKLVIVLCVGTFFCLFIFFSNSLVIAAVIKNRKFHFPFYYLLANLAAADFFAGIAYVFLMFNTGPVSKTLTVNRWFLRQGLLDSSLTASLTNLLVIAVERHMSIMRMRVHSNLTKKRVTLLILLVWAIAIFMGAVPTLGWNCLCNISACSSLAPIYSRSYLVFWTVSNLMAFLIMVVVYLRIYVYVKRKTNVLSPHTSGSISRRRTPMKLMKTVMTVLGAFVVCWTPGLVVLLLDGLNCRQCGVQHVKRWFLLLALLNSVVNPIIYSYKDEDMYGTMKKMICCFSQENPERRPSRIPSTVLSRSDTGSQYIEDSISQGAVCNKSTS
Kind of assay: LPA3 calcium flux assay (CHO cells stably expressing human LPA3). Format: cell-based. The settings on record: read-out: LPA3 Binding IC50. How it is done:
A vector containing the human LPA3 receptor cDNA was obtained from the Missouri S&T cDNA Resource Center (www.cdna.org). The full-length cDNA fragment for human LPA3 was obtained by PCR from the vector. The nucleotide sequence of the cloned human LPA3 was determined by sequencing and confirmed to be identical to the published human LPA3 sequence (NCBI accession number NM_012152). The cDNA was cloned into the pCDNA5/FRT expression plasmid and transfected in CHO cells using lipofectamine 2000 (Invitrogen Corp., USA). Clones stably expressing human LPA3 were selected using hygromycin and identified as cells that show Ca-influx in response to LPA.
(§1) Human LPA1 or LPA3 expressing CHO cells are seeded at 20,000-45,000 cells per well in a 96-well poly-D-lysine coated plate one or two days before the assay. Prior to the assay, the cells are washed once with PBS and then cultured in serum-free media overnight. On the day of the assay, a calcium indicator dye (Calcium 4, Molecular Devices) in assay buffer (HBSS with Ca^2+ and Mg^2+ and containing 20 mM Hepes and 0.3% fatty-acid free human serum albumin) is added to each well and incubation continued for 1 hour at 37° C. 10 μl of test compounds in 2.5% DMSO are added to the cells and incubation continued at room temperature for 30 minutes. Cells are the stimulated by the addition of 10 nM LPA and intracellular Ca^2+ measured using the Flexstation 3 (Molecular Devices). IC50s are determined using Graphpad prism analysis of drug titration curves.

Another assay has as its target T2, human LPA1 receptor (Homo sapiens, UniProt Q92633).
T2 construct: the full-length cDNA for human LPA1 was obtained by PCR of the reverse transcription reaction; expressed in transfected cells
Kind of assay: LPA1 binding (GTPγS binding assay, membranes of CHO cells expressing human LPA1). The class given is biochemical. The settings on record: 900 nM LPA, [35S]-GTPγS. How it is done: A 1.1 kb cDNA encoding the human LPA1 receptor was cloned from human lung. Human lung RNA (Clontech Laboratories, Inc. USA) was reverse transcribed using the RETROscript kit (Ambion, Inc.) and the full-length cDNA for human LPA1 was obtained by PCR of the reverse transcription reaction. The nucleotide sequence of the cloned human LPA1 was determined by sequencing and confirmed to be identical to the published human LPA1 sequence (An et al. Biochem. Biophys. Res. Commun. 231:619 (1997). The cDNA was cloned into the pCDNA5/FRT expression plasmid and transfected in CHO cells using lipofectamine 2000 (Invitrogen Corp., USA). Clones stably expressing human LPA1 were selected using hygromycin and identified as cells that show Ca-influx in response to LPA.
The ability of a compound to inhibit binding of GTP to LPA1 is assessed via a membrane GTPγS assay. CHO cells stably expressing the recombinant human LPA1 receptor are resuspended in 10 mM Hepes, 7.4 containing 1 mM DTT, lysed and centrifuged at 75,000×g to pellet the membranes. The membranes are resuspended in 10 mM Hepes, 7.4 containing 1 mM DTT and 10% glycerol. Membranes (˜25 μg per well) are incubated in 96-well plates with 0.1 nM [^35S]-GTPγS, 900 nM LPA, 5 μM GDP, and test compound in Assay Buffer (50 mM Hepes, pH 7.4, 100 mM NaCl, 10 mM MgCl2, 50 μg/ml saponin and 0.2% fatty-acid free human serum albumin) for 30 minutes at 30° C. The reactions are terminated by rapid filtration through Whatman GF/B glass fibre filter plates. The filter plates are washed 3 times with 1 ml cold Wash Buffer (50 mM Hepes, 7.5, 100 mM NaCl and 10 mM MgCl2) and dried. Scintillant is then added to the plates and the radioactivity retained on the filters is determined on a Packard TopCount (Perkin Elmer). Specific binding is determined as total radioactive binding minus non-specific binding in the absence of the ligand (900 nM LPA). IC50s were determined using Graphpad prism analysis of drug titration curves.
Background: GTPγS resists hydrolysis and so accumulates on activated G proteins.

The next assay has as its target T3, human LPA2 receptor (Homo sapiens, UniProt Q9HBW0).
T3 construct: The full-length cDNA fragment for human LPA2 was obtained by PCR from the vector; expressed in transfected cells; host or cells: B103 cells (pCDNA3.1, transient, lipofectamine 2000)
Kind of assay: LPA2 calcium flux assay (B103 cells transiently expressing human LPA2). The class given is cell-based. The settings on record: read-out: LPA2 Binding IC50. On the procedure:
A vector containing the human LPA2 receptor cDNA was obtained from the Missouri S&T cDNA Resource Center (www.cdna.org). The full-length cDNA fragment for human LPA2 was obtained by PCR from the vector. The nucleotide sequence of the cloned human LPA2 was determined by sequencing and confirmed to be identical to the published human LPA2 sequence (NCBI accession number NM_004720). The cDNA was cloned into the pCDNA3.1 expression plasmid and transfected into B103 cells (Invitrogen Corp., USA) by seeding cells in a 96-well poly-D-lysine coated plate at 30,000-35,000 cells per well together with 0.2 μl lipofectamine 2000 and 0.2 μg of the LPA2 expression vector. Cells were cultured overnight in complete media before being assayed for LPA-induced Ca-influx.
as §1, with “Following an overnight culture with lipofectamine 2000 and” for “Human LPA1 or LPA3 expressing CHO cells are seeded at 20,000-45,000 cells per well in a 96-well poly-D-lysine coated plate one or two days before”, “LPA2 expression vector,” for “assay. Prior to”, “B103” for “assay, the”, “PBS” for “PBS and”, “serum starved for 4 hours. A” for “cultured in serum-free media overnight. On the day of the assay, a”
Background: Calcium assays in cells follow changes in intracellular calcium, usually with a dye or a luminescent sensor.

Assay [1] concerns A2058 human melanoma cells. Kind of assay: LPA1 chemotaxis assay. The class given is cell-based. The settings on record: 100 nM LPA, read-out: IC50, inhibition of LPA-driven chemotaxis. On the procedure: Chemotaxis of the A2058 human melanoma cells was measured using the Neuroprobe ChemoTx® System plates (8 μm pore size, 5.7 mm diameter sites). The filter sites were coated with 0.001% fibronectin (Sigma) in 20 mM Hepes, pH 7.4 and allowed to dry. A2058 cells were serum-starved for 24 hours, then harvested with Cell Stripper and resuspended in DMEM containing 0.1% fatty-acid-free bovine serum albumin (BSA) to a concentration of 1×10^6/ml. Cells were mixed with an equal volume of test compound (2×) in DMEM containing 0.1% fatty-acid-free BSA and incubated at 37° C. for 15 minutes. LPA (100 nM in DMEM containing 0.1% fatty-acid-free BSA) or vehicle was added to each well of the lower chamber and 50 μl of the cell suspension/test compound mix was applied to the upper portion of the ChemoTx plate. Plates were incubated at 37° C. for three hours and then the cells removed from the upper portion by rinsing with PBS and scraping. The filter was dried then stained with HEMA 3 Staining System (Fisher Scientific). The absorbance of the filter was read at 590 nm and IC50s were determined using Symyx Assay Explorer.

T2 sequence (Q92633 whole entry): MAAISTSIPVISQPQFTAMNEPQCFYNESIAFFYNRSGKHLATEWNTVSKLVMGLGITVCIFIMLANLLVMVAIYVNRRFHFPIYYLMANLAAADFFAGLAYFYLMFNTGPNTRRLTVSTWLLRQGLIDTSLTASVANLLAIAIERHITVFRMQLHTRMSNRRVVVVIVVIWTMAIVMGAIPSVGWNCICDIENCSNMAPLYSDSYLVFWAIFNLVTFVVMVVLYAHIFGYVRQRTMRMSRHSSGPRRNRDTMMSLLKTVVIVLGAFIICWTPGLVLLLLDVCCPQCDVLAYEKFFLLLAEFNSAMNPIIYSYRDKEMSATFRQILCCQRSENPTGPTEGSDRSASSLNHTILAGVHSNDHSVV
T3 sequence (Q9HBW0 whole entry, the tested form may be a part): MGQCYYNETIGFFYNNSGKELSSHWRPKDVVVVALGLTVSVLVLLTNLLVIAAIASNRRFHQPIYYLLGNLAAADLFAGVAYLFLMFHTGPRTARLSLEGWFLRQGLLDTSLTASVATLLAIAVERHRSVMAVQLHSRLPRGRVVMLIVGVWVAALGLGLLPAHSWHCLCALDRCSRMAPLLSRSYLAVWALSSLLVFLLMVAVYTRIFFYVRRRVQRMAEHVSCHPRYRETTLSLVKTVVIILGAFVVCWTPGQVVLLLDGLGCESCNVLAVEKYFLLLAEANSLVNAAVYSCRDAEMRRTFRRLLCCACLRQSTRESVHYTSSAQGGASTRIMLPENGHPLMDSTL

On to `Cc1cccc(-c2cncc(Nc3c(C)noc3-c3ccc(-c4ccc(C5(C(=O)NS(C)(=O)=O)CC5)cc4)cc3)c2)c1` [Compound 11, N-(1-{4′-[3-Methyl-4-(5-(3-methyl-phenyl)-pyridin-3-ylamino)-isoxazol-5-yl]-biphenyl-4-yl}-cyclopropanecarbonyl)-methanesulfonamide], for which the concentration for half-maximal inhibition (IC50) at human LPA3 receptor, at human LPA1 receptor and on human LPA2 receptor was less than 300 nM in each case.

Regarding `Cc1cccc(-c2cccc(Nc3c(C)noc3-c3ccc(-c4ccc(C5(C(=O)O)CC5)cc4)cc3)n2)c1` [Compound 2, 1-(4′-{3-Methyl-4-[6-(3-methyl-phenyl)-pyridin-2-ylamino]-isoxazol-5-yl}-biphenyl-4-yl)-cyclopropanecarboxylic acid], the IC50 at human LPA3 receptor was less than 300 nM; at human LPA1 receptor, less than 300 nM; in assay [1] it was less than 500 nM; on human LPA2 receptor it was less than 300 nM.

In the case of `Cc1cccc(-c2cccc(Nc3c(C)noc3-c3ccc(-c4ccc(C5(C(=O)NS(C)(=O)=O)CC5)cc4)cc3)n2)c1` [Compound 8, N-(1-{4′-[3-Methyl-4-(6-(3-methyl-phenyl)-pyridin-2-ylamino)-isoxazol-5-yl]-biphenyl-4-yl}-cyclopropanecarbonyl)-methanesulfonamide], the half-inhibitory concentration (IC50) on human LPA3 receptor, at human LPA1 receptor and on human LPA2 receptor was less than 300 nM throughout.

In the case of `Cc1ccc(-c2cncc(Nc3c(C)noc3-c3ccc(-c4ccc(C5(C(=O)O)CC5)cc4)cc3)c2)cc1` [Compound 6, 1-(4′-{3-Methyl-4-[5-(4-methyl-phenyl)-pyridin-3-ylamino]-isoxazol-5-yl}-biphenyl-4-yl)-cyclopropanecarboxylic acid], the IC50 is less than 300 nM on human LPA3 receptor, less than 300 nM on human LPA1 receptor, less than 500 nM in assay [1] and less than 300 nM at human LPA2 receptor.

With `Cc1ccc(-c2cccc(Nc3c(C)noc3-c3ccc(-c4ccc(C5(C(=O)O)CC5)cc4)cc3)n2)cc1` [Compound 3, 1-(4′-{3-Methyl-4-[6-(4-methyl-phenyl)-pyridin-2-ylamino]-isoxazol-5-yl}-biphenyl-4-yl)-cyclopropanecarboxylic acid], the IC50 was less than 300 nM at human LPA3 receptor, less than 300 nM at human LPA1 receptor, less than 500 nM in assay [1] and less than 300 nM on human LPA2 receptor.

Turning to `Cc1cccc(-c2cncc(Nc3c(C)noc3-c3ccc(-c4ccc(C5(C(=O)O)CC5)cc4)cc3)c2)c1` [Compound 5, 1-(4′-{3-Methyl-4-[5-(3-methyl-phenyl)-pyridin-3-ylamino]-isoxazol-5-yl}-biphenyl-4-yl)-cyclopropanecarboxylic acid], the IC50 at human LPA3 receptor was less than 300 nM; at human LPA1 receptor, less than 300 nM; in assay [1], less than 500 nM; on human LPA2 receptor, less than 300 nM.

Take `Cc1ccccc1-c1cncc(Nc2c(C)noc2-c2ccc(-c3ccc(C4(C(=O)O)CC4)cc3)cc2)c1` [Compound 4, 1-(4′-{3-Methyl-4-[5-(2-methyl-phenyl)-pyridin-3-ylamino]-isoxazol-5-yl}-biphenyl-4-yl)-cyclopropanecarboxylic acid]: the IC50 on human LPA3 receptor is less than 300 nM; at human LPA1 receptor, less than 300 nM; in assay [1] it was less than 500 nM; at human LPA2 receptor it was less than 300 nM.

As for `Cc1ccccc1-c1cccc(Nc2c(C)noc2-c2ccc(-c3ccc(C4(C(=O)O)CC4)cc3)cc2)n1` [Compound 1, 1-(4′-{3-Methyl-4-[6-(2-methyl-phenyl)-pyridin-2-ylamino]-isoxazol-5-yl}-biphenyl-4-yl)-cyclopropanecarboxylic acid], the IC50 at human LPA3 receptor is less than 300 nM; at human LPA1 receptor it was less than 300 nM; in assay [1], less than 500 nM; on human LPA2 receptor, less than 300 nM.

Broadly, the IC50 is the point on the concentration scale where inhibition reaches its midpoint.
